Drawing on paper PMC10943337 (Heliyon, 2024), this text covers IC50 for one molecule.

In this assay the target is α-glucosidase (EC3.2.1.20). The experiment in a line: p-nitrophenyl-d-glucopyranoside hydrolysis, absorbance at […] nm, pH […] °C. The format is biochemical, Saccharomyces cerevisiae. The following applies: read-out: IC50 μM.

As for `COc1c(-c2ccc(O)c(O)c2)oc2c(O)c(O)ccc2c1=O` [compound 1, 2-(3,4-dihydroxyphenyl)-7,8-dihydroxy-3-methoxy-4H-chromen-4-one], the IC50 was 45.9 ± 1.98 µM.
